Key:
[1] = test system: S6K1 (Thr389) phosphorylation (mTORC1 activity) in wild-type (WT) 293T cells; experiment: Inhibition of S6K1 (Thr389) phosphorylation in wild-type 293T cells (ELISA); format: cell-based, human; details: for IC50: Homo sapiens, HEK-293T, 2 h, wild-type 293T cells, 2 hours treatment; for fold lower potency compared with RAD001 (by IC50) / extent of inhibition of S6K1 (Thr389) phosphorylation: wild-type cells; for extent of inhibition of S6K1 (Thr389) phosphorylation: with increasing concentrations
Description: (§1) Treatment of wild-type (WT) and FKBP12 knock-out 293T cells with RAD001 (everolimus) and test compounds. WT and FKBP12 knock-out 293T cells were cultured in Dulbecco's modified Eagle's medium (Gibco #11971-025) supplemented with 10% fetal bovine serum (Gibco #26140-079). Cells were plated at a density of 15,000 cells per well in poly-D-Lysine coated 96-well plates (Corning, #354461) and were incubated at 37° C., 5% CO2 for 24 hours until they reached ˜80% confluence. Cells were treated with RAD001 or test compounds reconstituted in dimethyl sulfoxide (DMSO) using a 8-11-point dose range, from 0.001 pM to 10 μM. All treatments were performed in duplicates for 2 hours at 37° C. Cell culture media supplemented with blank dimethyl sulfoxide (DMSO) was used as a negative control for all compounds. Phosphorylated amounts of S6K1 (Thr389) were measured using an ELISA kit (Invitrogen 85-86052-11), following the manufacture's protocol.
(§2) S6K1 is an immediate downstream target of mTORC1 and therefore phosphorylation of S6K1 at Thr389 residue is used to measure mTORC1 activity (PMID: 16968213). Amounts of phosphorylated S6K1 (Thr389) were measured in WT and FKBP12 knock-out 293T cells treated with either RAD001 or Compound 44 (FIGS. 1A and 1B), and Compound 45 (FIGS. 1C and 1D).

[2] = test system: S6K1 (Thr389) phosphorylation (mTORC1 activity) in FKBP12 knock-out 293T cells; experiment: Inhibition of S6K1 (Thr389) phosphorylation in FKBP12 knock-out 293T cells (ELISA); format: cell-based, human; details: for selectivity for FKBP12 compared with RAD001 (in words): wild-type versus FKBP12 knock-out cells
Excerpt: Example Generation of FKBP 12 knock-out cells. A CRISPR/Cas9 system was used to deliver ribonucleoprotein complexes containing guide RNA sequences that target FKBP12 (ac[…], location 1369062; ccactactcac[…], location 1369181) in HEK293T cells using Lipofectamine CRISPRMAX transfection reagent (Invitrogen CMAX00008). Cell clones were screened by immunoblotting with anti-FKBP-specific antibody (Novus, NB300-508). Single cells that were deficient for FKBP12 protein were selected and cloned.
as §1, §2

[3] = In vitro microsomal metabolic stability, CD-1 mouse liver microsomes; format: in vitro ADME; details: for CLint scaled at 1 µM / microsomal CLint at 1 µM: CD-1, mouse, mouse liver microsomes, pH 7.2; for half-life at 1 µM: CD-1, pH 7.2, 0.5 mg/ml protein, NADPH; for half-life at 1 µM / Remaining (T = 60 min) / Remaining (T = NCF60 min): Mouse liver microsomes; for Remaining (T = 60 min): with NADPH; for Remaining (T = NCF60 min): without NADPH regenerating system; for Remaining (T = 60 min) / Remaining (T = NCF60 min): 60 min
Description: (§3) Buffers: PBK Buffer: 50 mM potassium phosphate buffer (PPB), pH 7.2, with 3.3 mM Magnesium Chloride.
(§4) TA Intermediate solution: Compound or control (3 μL) diluted from stock solution (10 mM) with 297 μL 90.0% methanol/water. (Conc: 100 μM; 1.0% DMSO, 89.1% MeOH).
(§5) Control cocktail intermediate solution: Each control (3 μL) was diluted with 291 μL 90.0% methanol/water.
(§6) Diluted TA intermediate stock solution and PC control stock were made by transferring 80 μL of 100 μM TA stock solution into new tubes and then adding 720 μL of 1.0% DMSO in 50 mM potassium phosphate buffer (conc. 10 μM; 1.0% DMSO, 8.91% MeOH).
(§7) Preparation of Liver microsomes working solution (1.25×)(final Conc.: 0.5 mg/mL).
(§8) Acetonitrile:methanol (9:1, v/v)(including 200 ng/mL tolbutamide and 200 ng/ml labetalol hydrochloride as internal standards).
(§9) Working solution: Intermediate solution (80 μL) was diluted with 720 μL 1.0% DMSO in 50 mM potassium phosphate buffer (Conc.: 10 μM; 1.0% DMSO, 8.91% MeOH)
(§10) Procedure: Stock solution was added to each of the time point plates. Microsomes solution (360 μL/well), TA/PC (45 μL/well), and NADPH (45 μL/well) min. (Conc: 1.0 μM, 0.10% DMSO, 0.891% MeOH) were added to the incubation plates. To the T60 and NCF60 plate, TA (15 ul/well) and Microsomes (120 ul) were added. To the blank plate, microsome (50 ul/well) with stop solution (150 ul/well) were added. At the end of each time point, 50 ul/well was aliquoted from the incubation plate. The sampling plates were shaken for approximately 10 min. on a shaker and the samples were centrifuged at 4000 rpm for 15 min. Supernatant (120 μL) was transferred for LC/MS/MS.Compounds from Table 3 were incubated at 37° C. with liver microsomes (pooled from multiple donors) at 1 μM in the presence of a NADPH regenerating system at 0.5 mg/ml microsomal protein. Positive controls included testosterone (3A4 substrate), propafenone (2D6) and diclofenac (2C9), which were incubated with microsomes in the presence of an NADPH regenerating system. At time points (0, 5, 10, 20, 30 and 60 minutes), samples were removed and immediately mixed with cold acetonitrile containing the internal standard (IS). Test compounds incubated with microsomes without the NADPH regenerating system for 60 min are also included. A single point for each test condition (n=1) was obtained, and samples were analyzed by LC/MS/MS. Disappearance of the test compound was assessed based on peak area ratios of analyte/IS (no standard curve).

[4] = In vitro microsomal metabolic stability, human liver microsomes; format: in vitro ADME; details: for Remaining (T = 60 min) / Remaining (T = NCF60 min) / half-life at 1 µM: Human liver microsomes; for Remaining (T = 60 min): with NADPH; for Remaining (T = NCF60 min): without NADPH regenerating system; for Remaining (T = 60 min) / Remaining (T = NCF60 min): 60 min; for CLint scaled at 1 µM / microsomal CLint at 1 µM: human, human liver microsomes; for CLint scaled at 1 µM / microsomal CLint at 1 µM / half-life at 1 µM: pH 7.2; for half-life at 1 µM: 0.5 mg/ml protein, NADPH
Description: as §3, §4, §5, §6, §7, §8, §9, §10

## CO[C@@H]1C[C@H](C[C@@H](C)[C@@H]2CC[C@H](C)/C=C(\C)[C@@H](O)[C@@H](OC)C(=O)[C@H](C)C[C@H](C)/C=C/C=C/C=C(\C)C(Nc3ccc(C)cc3)C[C@@H]3CC[C@@H](C)[C@@](O)(O3)C(=O)C(=O)N3CCCCC3C(=O)O2)CC[C@H]1O (stereo partly drawn) [Compound 49, (3S,6S,7E,9R,10R,12R,14S,15E,17E,19E,23S,26R,27R,34aS)-9,27-dihydroxy-3-((R)-1-((1S,3R,4R)-4-hydroxy-3-methoxycyclohexyl)propan-2-yl)-10-methoxy-6,8,12,14,20,26-hexamethyl-21-(p-tolylamino)-5,6,9,10,12,13,14,21,22,23,24,25,26,27,32,33,34,34a-octadecahydro-3H-23,27-epoxypyrido[2,1-c][1]oxa[4]azacyclohentriacontine-1,11,28,29(4H,31H)-tetraone]
[1]
  IC50: 9.5 nM
  fold lower potency compared with RAD001 (by IC50): 29 fold
  extent of inhibition of S6K1 (Thr389) phosphorylation: near complete inhibition
[2]; FKBP12 knock-out cells
  inhibition of S6K1 (Thr389) phosphorylation in the absence of FKBP12 (in words): did not inhibit S6K1 (Thr389)phosphorylation at any tested concentrations
[2]
  selectivity for FKBP12 compared with RAD001 (in words): relatively more selective to FKBP12 compared with RAD001
[3]
  CLint scaled at 1 µM: 42.3 mL/min/kg
  microsomal CLint at 1 µM: 10.7 µL/min/mg
  half-life at 1 µM: 130 min
  Remaining (T = 60 min): 67%
  Remaining (T = NCF60 min): 139%
[4]
  Remaining (T = 60 min): 15%
  Remaining (T = NCF60 min): 102%
  CLint scaled at 1 µM: 59.6 mL/min/kg
  microsomal CLint at 1 µM: 66.2 µL/min/mg
  half-life at 1 µM: 20.9 min

## CO[C@@H]1C[C@H](C[C@@H](C)[C@@H]2CC[C@H](C)/C=C(\C)[C@@H](O)[C@@H](OC)C(=O)[C@H](C)C[C@H](C)/C=C/C=C/C=C(\C)C(Nc3cccc(C)c3)C[C@@H]3CC[C@@H](C)[C@@](O)(O3)C(=O)C(=O)N3CCCCC3C(=O)O2)CC[C@H]1O (stereo partly drawn) [Compound 50, (3S,6S,7E,9R,10R,12R,14S,15E,17E,19E,23S,26R,27R,34aS)-9,27-dihydroxy-3-((R)-1-((1S,3R,4R)-4-hydroxy-3-methoxycyclohexyl)propan-2-yl)-10-methoxy-6,8,12,14,20,26-hexamethyl-21-(m-tolylamino)-5,6,9,10,12,13,14,21,22,23,24,25,26,27,32,33,34,34a-octadecahydro-3H-23,27-epoxypyrido[2,1-c][1]oxa[4]azacyclohentriacontine-1,11,28,29(4H,31H)-tetraone]
[1]
  IC50: 5.72 nM
  fold lower potency compared with RAD001 (by IC50): 15 fold
  extent of inhibition of S6K1 (Thr389) phosphorylation: near complete inhibition
[2]; Homo sapiens, HEK-293T, FKBP12 knock-out cells, 10 μM (highest tested concentration)
  inhibition at 10 µM: 12%
[2]
  selectivity for FKBP12 compared with RAD001 (in words): selective to FKBP12
[3]
  microsomal CLint at 1 µM: < 9.6 µL/min/mg
  half-life at 1 µM: > 145 min
  Remaining (T = 60 min): 89%
  Remaining (T = NCF60 min): 112%
[4]
  Remaining (T = 60 min): 18%
  Remaining (T = NCF60 min): 99%
  CLint scaled at 1 µM: 54.7 mL/min/kg
  microsomal CLint at 1 µM: 60.8 µL/min/mg
  half-life at 1 µM: 22.8 min

## CO[C@@H]1C[C@H](C[C@@H](C)[C@@H]2CC[C@H](C)/C=C(\C)[C@@H](O)[C@@H](OC)C(=O)[C@H](C)C[C@H](C)/C=C/C=C/C=C(\C)C(NS(=O)(=O)c3cnoc3C)C[C@@H]3CC[C@@H](C)[C@@](O)(O3)C(=O)C(=O)N3CCCCC3C(=O)O2)CC[C@H]1O (stereo partly drawn) [Compound 51, N-((3S,6S,7E,9R,10R,12R,14S,15E,17E,19E,23S,26R,27R,34aS)-9,27-dihydroxy-3-((R)-1-((1S,3R,4R)-4-hydroxy-3-methoxycyclohexyl)propan-2-yl)-10-methoxy-6,8,12,14,20,26-hexamethyl-1,11,28,29-tetraoxo-1,4,5,6,9,10,11,12,13,14,21,22,23,24,25,26,27,28,29,31,32,33,34,34a-tetracosahydro-3H-23,27-epoxypyrido[2,1-c][1]oxa[4]azacyclohentriacontin-21-yl)-5-methylisoxazole-4-sulfonamide]
[1]
  IC50: 4.53 nM
  fold lower potency compared with RAD001 (by IC50): 12 fold
  extent of inhibition of S6K1 (Thr389) phosphorylation: near complete inhibition
[2]; FKBP12 knock-out cells
  inhibition of S6K1 (Thr389) phosphorylation in the absence of FKBP12 (in words): no further inhibition at 10 μM
[2]; Homo sapiens, HEK-293T, FKBP12 knock-out cells, 1 μM
  inhibition at 1 µM: 18%
[2]
  selectivity for FKBP12 compared with RAD001 (in words): not completely selective to FKBP12
[3]
  CLint scaled at 1 µM: 255 mL/min/kg
  microsomal CLint at 1 µM: 64.3 µL/min/mg
  half-life at 1 µM: 21.5 min
  Remaining (T = 60 min): 15%
  Remaining (T = NCF60 min): 85%
[4]
  Remaining (T = 60 min): 0.20%
  Remaining (T = NCF60 min): 89%
  CLint scaled at 1 µM: 182 mL/min/kg
  microsomal CLint at 1 µM: 202 µL/min/mg
  half-life at 1 µM: 6.86 min
